{
  "source": "patent US8192962B2",
  "about": "“Processes for detecting toxic substances” (Daikin Industries, Ltd., priority 2001, dated 2012)",
  "test_system": "Transport facilitation protein genes",
  "test": "DNA chip mRNA expression in yeast, transport facilitation protein genes (Table 5)",
  "format": "cell-based, Saccharomyces cerevisiae S288C",
  "outline": "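S. cerevisiae S288C grown at 25° C in YPD were exposed in log phase for two hours to one toxic chemical at a growth-inhibiting, non-lethal concentration; untreated cells served as control. Poly(A) mRNA was reverse-transcribed with Cy3/Cy5-dUTP and hybridized to a whole-genome yeast DNA chip at 65° C for over 12 hours; values are fluorescence ratios versus untreated.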",
  "data": [
    {"compound": "Cl[C@H]1[C@H](Cl)[C@@H](Cl)[C@@H](Cl)[C@H](Cl)[C@H]1Cl", "note": "[(7), γ-hexachlorocyclohexane]", "values": [
      {"measurement": "The level of expressed mRNA in the presence of chemical substance/The level of expressed mRNA in the absence of chemical substance", "setting": "yeast gene YGR260W", "result": 0.9},
      {"measurement": "The level of expressed mRNA in the presence of chemical substance/The level of expressed mRNA in the absence of chemical substance", "setting": "yeast gene YGR281W", "result": 0.9},
      {"measurement": "The level of expressed mRNA in the presence of chemical substance/The level of expressed mRNA in the absence of chemical substance", "setting": "yeast gene YHL035C", "result": 1.7},
      {"measurement": "The level of expressed mRNA in the presence of chemical substance/The level of expressed mRNA in the absence of chemical substance", "setting": "yeast gene YHL040C", "result": 4.0},
      {"measurement": "The level of expressed mRNA in the presence of chemical substance/The level of expressed mRNA in the absence of chemical substance", "setting": "yeast gene YHL047C", "result": 16.8},
      {"measurement": "The level of expressed mRNA in the presence of chemical substance/The level of expressed mRNA in the absence of chemical substance", "setting": "yeast gene YHR026W", "result": 0.9},
      {"measurement": "The level of expressed mRNA in the presence of chemical substance/The level of expressed mRNA in the absence of chemical substance", "setting": "yeast gene YHR092C", "result": 0.5},
      {"measurement": "The level of expressed mRNA in the presence of chemical substance/The level of expressed mRNA in the absence of chemical substance", "setting": "yeast gene YHR094C", "result": 0.8},
      {"measurement": "The level of expressed mRNA in the presence of chemical substance/The level of expressed mRNA in the absence of chemical substance", "setting": "yeast gene YHR175W", "result": 1.6},
      {"measurement": "The level of expressed mRNA in the presence of chemical substance/The level of expressed mRNA in the absence of chemical substance", "setting": "yeast gene YIL006W", "result": 0.8},
      {"measurement": "The level of expressed mRNA in the presence of chemical substance/The level of expressed mRNA in the absence of chemical substance", "setting": "yeast gene YIL022W", "result": 0.7},
      {"measurement": "The level of expressed mRNA in the presence of chemical substance/The level of expressed mRNA in the absence of chemical substance", "setting": "yeast gene YIL056W", "result": 0.6},
      {"measurement": "The level of expressed mRNA in the presence of chemical substance/The level of expressed mRNA in the absence of chemical substance", "setting": "yeast gene YIL088C", "result": 1.7},
      {"measurement": "The level of expressed mRNA in the presence of chemical substance/The level of expressed mRNA in the absence of chemical substance", "setting": "yeast gene YJL034W", "result": 1.3},
      {"measurement": "The level of expressed mRNA in the presence of chemical substance/The level of expressed mRNA in the absence of chemical substance", "setting": "yeast gene YJL212C", "result": 0.7},
      {"measurement": "The level of expressed mRNA in the presence of chemical substance/The level of expressed mRNA in the absence of chemical substance", "setting": "yeast gene YJL219W", "result": 0.9},
      {"measurement": "The level of expressed mRNA in the presence of chemical substance/The level of expressed mRNA in the absence of chemical substance", "setting": "yeast gene YJR077C", "result": 0.7},
      {"measurement": "The level of expressed mRNA in the presence of chemical substance/The level of expressed mRNA in the absence of chemical substance", "setting": "yeast gene YJR106W", "result": 1.0},
      {"measurement": "The level of expressed mRNA in the presence of chemical substance/The level of expressed mRNA in the absence of chemical substance", "setting": "yeast gene YJR121W", "result": 1.0},
      {"measurement": "The level of expressed mRNA in the presence of chemical substance/The level of expressed mRNA in the absence of chemical substance", "setting": "yeast gene YKL016C", "result": 1.5},
      {"measurement": "The level of expressed mRNA in the presence of chemical substance/The level of expressed mRNA in the absence of chemical substance", "setting": "yeast gene YKL146W", "result": 0.9},
      {"measurement": "The level of expressed mRNA in the presence of chemical substance/The level of expressed mRNA in the absence of chemical substance", "setting": "yeast gene YKR039W", "result": 1.0},
      {"measurement": "The level of expressed mRNA in the presence of chemical substance/The level of expressed mRNA in the absence of chemical substance", "setting": "yeast gene YKR067W", "result": 2.0},
      {"measurement": "The level of expressed mRNA in the presence of chemical substance/The level of expressed mRNA in the absence of chemical substance", "setting": "yeast gene YLL028W", "result": 1.0},
      {"measurement": "The level of expressed mRNA in the presence of chemical substance/The level of expressed mRNA in the absence of chemical substance", "setting": "yeast gene YLR081W", "result": 0.7},
      {"measurement": "The level of expressed mRNA in the presence of chemical substance/The level of expressed mRNA in the absence of chemical substance", "setting": "yeast gene YLR295C", "result": 1.1},
      {"measurement": "The level of expressed mRNA in the presence of chemical substance/The level of expressed mRNA in the absence of chemical substance", "setting": "yeast gene YLR348C", "result": 0.9},
      {"measurement": "The level of expressed mRNA in the presence of chemical substance/The level of expressed mRNA in the absence of chemical substance", "setting": "yeast gene YLR378C", "result": 0.7},
      {"measurement": "The level of expressed mRNA in the presence of chemical substance/The level of expressed mRNA in the absence of chemical substance", "setting": "yeast gene YMR011W", "result": 0.8},
      {"measurement": "The level of expressed mRNA in the presence of chemical substance/The level of expressed mRNA in the absence of chemical substance", "setting": "yeast gene YMR162C", "result": 0.8},
      {"measurement": "The level of expressed mRNA in the presence of chemical substance/The level of expressed mRNA in the absence of chemical substance", "setting": "yeast gene YMR203W", "result": 0.8},
      {"measurement": "The level of expressed mRNA in the presence of chemical substance/The level of expressed mRNA in the absence of chemical substance", "setting": "yeast gene YNL055C", "result": 1.2},
      {"measurement": "The level of expressed mRNA in the presence of chemical substance/The level of expressed mRNA in the absence of chemical substance", "setting": "yeast gene YNL259C", "result": 3.8},
      {"measurement": "The level of expressed mRNA in the presence of chemical substance/The level of expressed mRNA in the absence of chemical substance", "setting": "yeast gene YNR072W", "result": 1.5},
      {"measurement": "The level of expressed mRNA in the presence of chemical substance/The level of expressed mRNA in the absence of chemical substance", "setting": "yeast gene YOL119C", "result": 2.2},
      {"measurement": "The level of expressed mRNA in the presence of chemical substance/The level of expressed mRNA in the absence of chemical substance", "setting": "yeast gene YOL156W", "result": 1.0},
      {"measurement": "The level of expressed mRNA in the presence of chemical substance/The level of expressed mRNA in the absence of chemical substance", "setting": "yeast gene YOL163W", "result": 0.9},
      {"measurement": "The level of expressed mRNA in the presence of chemical substance/The level of expressed mRNA in the absence of chemical substance", "setting": "yeast gene YOR035C", "result": 1.3},
      {"measurement": "The level of expressed mRNA in the presence of chemical substance/The level of expressed mRNA in the absence of chemical substance", "setting": "yeast gene YOR130C", "result": 1.3},
      {"measurement": "The level of expressed mRNA in the presence of chemical substance/The level of expressed mRNA in the absence of chemical substance", "setting": "yeast gene YOR153W", "result": 2.6},
      {"measurement": "The level of expressed mRNA in the presence of chemical substance/The level of expressed mRNA in the absence of chemical substance", "setting": "yeast gene YOR270C", "result": 1.0},
      {"measurement": "The level of expressed mRNA in the presence of chemical substance/The level of expressed mRNA in the absence of chemical substance", "setting": "yeast gene YOR273C", "result": 0.4},
      {"measurement": "The level of expressed mRNA in the presence of chemical substance/The level of expressed mRNA in the absence of chemical substance", "setting": "yeast gene YOR316C", "result": 1.4},
      {"measurement": "The level of expressed mRNA in the presence of chemical substance/The level of expressed mRNA in the absence of chemical substance", "setting": "yeast gene YOR332W", "result": 0.9},
      {"measurement": "The level of expressed mRNA in the presence of chemical substance/The level of expressed mRNA in the absence of chemical substance", "setting": "yeast gene YOR348C", "result": 0.8},
      {"measurement": "The level of expressed mRNA in the presence of chemical substance/The level of expressed mRNA in the absence of chemical substance", "setting": "yeast gene YPL036W", "result": 0.3},
      {"measurement": "The level of expressed mRNA in the presence of chemical substance/The level of expressed mRNA in the absence of chemical substance", "setting": "yeast gene YPL134C", "result": 1.2},
      {"measurement": "The level of expressed mRNA in the presence of chemical substance/The level of expressed mRNA in the absence of chemical substance", "setting": "yeast gene YPL271W", "result": 1.2},
      {"measurement": "The level of expressed mRNA in the presence of chemical substance/The level of expressed mRNA in the absence of chemical substance", "setting": "yeast gene YPR192W", "result": 0.9},
      {"measurement": "The level of expressed mRNA in the presence of chemical substance/The level of expressed mRNA in the absence of chemical substance", "setting": "yeast gene YPR194C", "result": 0.7}
    ]}
  ]
}
